Here are results for 1 compound from patent publication US20120202885A1, “METHODS, ASSAYS AND COMPOSITIONS FOR TREATING RETINOL-RELATED DISEASES” (ReVision Therapeutics, Inc., priority 2004, published 2012).

The target in data set [1] is T1, Retinol Binding Protein (RBP) (Homo sapiens, UniProt P02753). The data set can be described thus: Competition binding assay of HPR against RBP-retinol by fluorescence quenching. As to conditions: physiological temperature; HPR 2 μM (FIG. 9b). The source says:
Based upon these findings, we sought to further explore the mechanism(s) of retinol reduction during HPR treatment. A tenable hypothesis is that HPR may displace retinol by competing at the retinol binding site on RBP. […] Therefore, one can measure displacement of retinol from the RBP holoprotein by observing decreases in both protein (340 nm) and retinol (470 nm) fluorescence. We performed a competition binding assay using RBP-retinol/HPR concentrations which were similar to those determined from the 14 day trial at 20 mg/kg HPR described above. […] In the control assays, decreases in retinol fluorescence were associated with concomitant increases in protein fluorescence, see FIG. 9a. This effect was determined to be due to temperature effects as the dissociation constant of RBP-retinol increases (decreased affinity) with increased time at 37 C.

The target of data set [2] is T1, Retinol Binding Protein (RBP). The data set can be described thus: Fluorescence quenching study of MPR binding to retinol binding protein. Particulars: 1 μM ligand, 0.5 μM Apo-RBP. Here is the method:
Apo-RBP at 0.5 μM was incubated with 0, 0.25, 0.5, 1 and 2 μM of MPR in PBS at room temperature for 1 hour, respectively. As controls, the same concentration of Apo-RBP was also incubated with 1 μM of HPR or 1 μM of atROL. All mixtures contained 0.2% Ethanol (v/v). The emission spectra were measured between 290 nm to 550 nm with excitation wavelength at 280 nm and 3 nm bandpass.

The subject of another data set is ABCA4 null mutant mice. The data set can be described thus: 28-day HPR dose study: serum retinol, A2PE-H2, A2E, retinoids, retinal physiology and histology. The data set is classed as in vivo. Here is the method:
ABCA4 null mutant mice were given the indicated dose of HPR in DMSO (i.p.) daily for 28 days (n=4 mice per dosage group). At the end of the study period, blood samples were taken and serum was prepared. Following acetonitrile precipitation of serum proteins, the concentrations of retinol and HPR were determined from the soluble phase by LC/MS (see FIG. 8). Identity of the eluted compounds was confirmed by UV-vis absorption spectroscopy and co-elution of sample peaks with authentic standards.
Group averages from the data shown in panels A-G of FIG. 13 in Example 25 (28 day time points) are plotted to illustrate the strong correlation between increases in serum HPR and decreases in serum retinol (see FIG. 14). Reductions in serum retinol are highly correlated with reductions in A2E and precursor compounds (A2PE-H2). A pronounced reduction in A2PE-H2 in the 2.5 mg/kg dosage group (−47%) is observed when the serum retinol reduction is only 20%. The reason for this disproportionate reduction is related to the inherently lower ocular retinoid content in this group of 2-month old animals compared to the other groups. It is likely that if these animals had been maintained on the 2.5 mg/kg dose for a more prolonged period, a greater reduction in A2E would also be realized.
Panels D-F of FIG. 15 are electrophysiological measurements of rod function (panel D), rod and cone function (panel E) and recovery from photobleaching (panel F).
ABCA4 null mutant mice were given the indicated dose of HPR in DMSO or DMSO alone daily for 28 days (n=16 mice per treatment group). At study onset, mice in the 2.5 mg/kg group were 2 months of age, mice in the other treatment groups were 3 months of age. At the indicated times, representative mice were taken from each group (n=4) for analysis of A2E precursor compounds (see FIG. 13, A2PE-H2, panels A, C and E) and A2E (see FIG. 13, panels B, D and F). Eyes were enucleated, hemisected and lipid soluble components were extracted from the posterior pole by chloroform/methanol-water phase partitioning. Sample extracts were analyzed by LC. Identity of the eluted compounds was confirmed by UV-vis absorption spectroscopy and co-elution of sample peaks with authentic standards. Note: limitations in appropriately age and strain-matched mice in the 10 mg/kg group prevented analysis at the 14-day interval.
Treatment conditions are as described above.

A further data set relates to ABCA4−/− mice. The data set can be described thus: Drug holiday after 28 days of HPR: A2E and precursors in eyecup extracts (HPLC). The data set is classed as in vivo. As to conditions: for A2E and precursor (A2PE-H2 and A2PE) levels: 10 mg/kg 28 days. Here is the method: HPR (10 mg/kg in DMSO) was administered to ABCA4−/− mice daily for a period of 28 days. Control ABCA4−/− mice received only DMSO for the same period. […] Importantly, the observed reductions in lipofuscin autofluorescence persist long after cessation of HPR therapy. HPR (10 mg/kg), or DMSO, administration was discontinued following 28 days of treatment and re-evaluated A2E and precursor levels after 2 weeks and after 4 weeks.
We examined eyecup extracts by HPLC and employed detection by absorbance and fluorimetry. Identity of the indicated peaks was confirmed by on-line spectral analysis and by co-elution with authentic standards. […] Further, the A2E and precursor (A2PE-H2 and A2PE) levels after a […] or 28-day drug holiday remained at or near the levels immediately following 28 days of treatment (i.e., ca. 50% reduction relative to control), although after the 28-day drug holiday, the amount of A2E and precursor (A2PE-H2 and A2PE) had increased by a few percentage points relative to the 12-day drug holiday levels. […] It is clear that peak fluorescence tracks with the abundance of A2E, A2PE and A2PE-H2.

The test system of a further data set is wild type mice. The data set can be described thus: HPR given to wild type mice for 5 days, then illumination: serum and ocular retinoids. The data set is classed as in vivo. As to conditions: 20 mg/kg. Here is the method: In order to ensure that the observed effects of HPR in ABCA4 null mice were not due to the genetic mutation, HPR (20 mg/kg, i.p. in DMSO) was administered to wild type mice for 5 days. Control mice received only the DMSO vehicle. On the final day of HPR treatment, the mice were exposed to constant illumination (1000 lux for 10 min) in order “stimulate” the visual cycle to generate visual chromophore. Immediately following the illumination period, the animals were sacrificed and the concentrations of retinoids in serum and ocular tissue were determined. […] As in the previous study, HPR caused a significant reduction in serum retinol (˜55%), ocular retinol (˜40%) and ocular retinal (˜30%). Although HPR did accumulate within ocular tissues during the treatment period (˜5 μM), no effect on LRAT or Rpe65/isomerase activities was observed.

The conditions of data set [3]: cited from earlier work.

Turning to `CC1=C(/C=C/C(C)=C/C=C/C(C)=C/C(=O)Nc2ccc(O)cc2)C(C)(C)CCC1` [HPR, N-(4-hydroxyphenyl)retinamide], in data set [1], the “displacement of retinol from the RBP-retinol holoprotein” value was “efficiently displaces retinol”. In addition, the “binding to RBP” value in data set [2] is “bind to RBP”. Further, the “reduction in A2PE-H2” value in the data set on ABCA4 null mutant mice (2.5 mg/kg dosage group, 28 days) is −47%. Besides, in the data set with ABCA4 null mutant mice (10 mg/kg daily for 28 days), the “electrophysiology: recovery from photobleaching” value is on record as “delayed dark adaptation” and the “regeneration of visual chromophore” value is given as “does not affect regeneration of visual chromophore”. The “retinal morphology by light microscopy” value in the data set with ABCA4 null mutant mice (28 days) is listed as “No aberrant morphology or compromise of the integrity in retinal cyto structure was observed”. Also, in the data set with ABCA4 null mutant mice (abcr null mutant mice, 28 days), the “level of autofluorescence versus wild type” value is recorded as “comparable to that of an age-matched wild-type animal” and the “lipofuscin autofluorescence in the RPE” value was “significantly reduces lipofuscin autofluorescence”. Moreover, the “A2PE-H2 and A2E during the study period” value with ABCA4 null mutant mice (indicated doses daily for 28 days) is “dose-dependent reductions”. The serum retinol result in the data set with ABCA4 null mutant mice (summary statement) is “potently and reversibly reduces serum retinol”. The “A2E and precursor (A2PE-H2 and A2PE) levels” value in the data set with ABCA4−/− mice (then 12-day drug holiday) is on record as “remain significantly reduced relative to control mice”. Further, in the data set on ABCA4−/− mice (then 28-day drug holiday), the “A2E and precursor (A2PE-H2 and A2PE) levels” value was “remain significantly reduced relative to control mice”. Besides, the “detection of HPR or HPR metabolites in the eyes” value in the data set on ABCA4−/− mice (28-day drug holiday) is recorded as “unable to detect”. The “reduction of A2E and precursors relative to control” value with ABCA4−/− mice (immediately following 28 days of treatment, level held after 12- or 28-day drug holiday) is on record as “ca. 50%”. Besides, in the data set on wild type mice (i.p. in DMSO, wild type mice), the “reduction in ocular retinal” value is about 30%, the “reduction in ocular retinol” value was about 40% and the “reduction in serum retinol” value is reported as about 55%. Also, the “inhibition in synthesis of retinyl esters or visual chromophore” value with wild type mice (i.p., 1000 lux for 10 min) is on record as “no significant inhibition”. Besides, the “effect on LRAT or Rpe65/isomerase activities” value with wild type mice (i.p., wild type mice) is “no effect”. The “serum retinol and RBP” value in data set [3] (Formelli et al., Torrisi et al.) is “reductions in serum retinol and RBP”. In data set [3] (several investigators, Berni et al. 1993), the “reduction in circulating RBP and retinol” value is given as “established in vivo”.
